In ChEMBL document CHEMBL3045493, “Synthesis and antifungal activity of novel 2,5-disubstituted-1,3,4-oxadiazoles containing benzimidazole moiety” (J Pestic Sci, 2012):
≈ marks a conversion by molar mass, not a printed value.

Legend:
Sclerotinia sclerotiorum = assay: Antifungal activity against benzimidazole-sensitive Sclerotinia sclerotiorum SS-JSZ01 assessed as inhibition of mycelium growth after 3 days followed by 96 hr incubation in light incubator; type: functional, organism-based
Botrytis cinerea = assay: Antifungal activity against benzimidazole moderately resistant Botryotinia fuckeliana BC-JfC02 assessed as inhibition of mycelium growth after 3 days followed by 96 hr incubation in light incubator; type: functional, organism-based

Compound | EC50 (Sclerotinia sclerotiorum) [µg/mL] | EC50 (Botrytis cinerea) [µg/mL]
Fc1ccc(CSc2nnc(-c3nc4ccccc4n3Cc3ccc(F)cc3)o2)cc1 | 7.52 (≈ 17.3 µM) | 13.9 (≈ 32.1 µM)
Fc1ccc(Cn2c(-c3nnc(SCc4ccc(Cl)cc4)o3)nc3ccccc32)cc1 | 0.43 (≈ 0.954 µM) | 6.07 (≈ 13.5 µM)
Fc1ccc(Cn2c(-c3nnc(SCc4ccc(Cl)cc4Cl)o3)nc3ccccc32)cc1 | 0.55 (≈ 1.13 µM) | 7.81 (≈ 16.1 µM)
CC(C)Sc1nnc(-c2nc3ccccc3[nH]2)o1 | 23.4 (≈ 89.8 µM) | 24.1 (≈ 92.8 µM)
CCCCSc1nnc(-c2nc3ccccc3[nH]2)o1 | 9.12 (≈ 33.2 µM) | 9.86 (≈ 35.9 µM)
c1ccc(CSc2nnc(-c3nc4ccccc4[nH]3)o2)cc1 | 22.9 (≈ 74.4 µM) | 18.4 (≈ 59.6 µM)
Fc1ccc(CSc2nnc(-c3nc4ccccc4[nH]3)o2)cc1 | 20.5 (≈ 62.7 µM) | 12.8 (≈ 39.1 µM)
Clc1ccc(CSc2nnc(-c3nc4ccccc4[nH]3)o2)cc1 | 9.1 (≈ 26.5 µM) | 14.8 (≈ 43.3 µM)
Clc1ccc(CSc2nnc(-c3nc4ccccc4[nH]3)o2)c(Cl)c1 | 22.7 (≈ 60.3 µM) | 16.4 (≈ 43.4 µM)
CSc1nnc(-c2nc3ccccc3n2Cc2ccc(F)cc2)o1 | 12.4 (≈ 36.3 µM) | 14 (≈ 41 µM)
CCSc1nnc(-c2nc3ccccc3n2Cc2ccc(F)cc2)o1 | 8.86 (≈ 25 µM) | 3.08 (≈ 8.69 µM)
CCCSc1nnc(-c2nc3ccccc3n2Cc2ccc(F)cc2)o1 | 2.03 (≈ 5.51 µM) | 5.63 (≈ 15.3 µM)
CC(C)Sc1nnc(-c2nc3ccccc3n2Cc2ccc(F)cc2)o1 | 10.2 (≈ 27.5 µM) | 11.4 (≈ 30.9 µM)
CCCCSc1nnc(-c2nc3ccccc3n2Cc2ccc(F)cc2)o1 | 0.94 (≈ 2.46 µM) | 6.26 (≈ 16.4 µM)
Fc1ccc(Cn2c(-c3nnc(SCc4ccccc4)o3)nc3ccccc32)cc1 | 0.04 (≈ 0.096 µM) | 1.31 (≈ 3.15 µM)
CSc1nnc(-c2nc3ccccc3[nH]2)o1 | 2.04 (≈ 8.78 µM) | 10.6 (≈ 45.5 µM)
CCSc1nnc(-c2nc3ccccc3[nH]2)o1 | 1.31 (≈ 5.32 µM) | 2.7 (≈ 11 µM)
CCCSc1nnc(-c2nc3ccccc3[nH]2)o1 | 18.2 (≈ 70 µM) | 16.6 (≈ 63.6 µM)
COC(=O)Nc1nc2ccccc2[nH]1 [CARBENDAZIM] | 0.13 (≈ 0.68 µM) | 7.4 (≈ 38.7 µM)
